Assay results as given in the supplement of paper PMC11208160.

Test: recombinant barcode read abundance after kanamycin selection (control-corrected) (log10(CPM+1)); higher = more efficient recombination; sequences stand for … in AGTGCAGAGAAAATCGGCCAGTTTTCTCTGCCTGCAGTCCGCATGCCGT…AGATTTATGCAGCGGACTGCCTTTCTCCCAAAGTGATAAACCGGACAGTATCATGGACCGGTTTTCCCGGTAATCCGTATTTGCAAGGTTGGTTTCACT; site = the 11-nt target
In short: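 Targets and IS621 bridge RNA target-binding loops were paired in oligos, each with a promoter, a barcode and the J23119-driven first 104 bridge RNA bases. A vector carrying the remaining 73 bp and a T7-inducible recombinase received these by Gibson cloning, and the pool was co-electroporated into E. coli with a donor plasmid. Duplicate plates contained chloramphenicol/ampicillin LB agar (control) or chloramphenicol/ampicillin/kanamycin with 0.1 mM IPTG. Recombination efficiency comes from averaged, control-corrected counts per million of recombinant-junction barcodes, reported as log10(CPM+1).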
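Also: IS621 recombinase and bridge RNA in Escherichia coli cells.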

Sequence | recombinant barcode read abundance (log10)
TAGAGAGCTTGGGTTCTAACCTGTTGCGG (site TAAAGAGCTCC) | 1.57
CTATTGTCTTGGGTTCTAACCTGTTGCGG (site CTATTGTCTGC) | 0.249
GGGTCGGCTTGGGTTCTAACCTGTTGCGT (site GGGTCGGCTAC) | 2.68
CTAAGAGCTTGGGTTCTAACCTGTTGCCA (site CTAAGCGCTTG) | 0.109
CTGTGCACTTGGGTTCTAACCTGTTGCCG (site ATGTGCACTCT) | 0.053
ACCCTGGCTTGGGTTCTAACCTGTTGCCT (site ACGCTGGCTAG) | 0.326
TGTTGCACTTGGGTTCTAACCTGTTGCCT (site TGTTGCACTAG) | 0.0616
CGACCCTCTTGGGTTCTAACCTGTTGCCT (site AGACCCTCTAG) | 0.0358
GTAATGTCTTGGGTTCTAACCTGTTGCCT (site GAAATGTCTAG) | 0.284
ACGGTTGCTTGGGTTCTAACCTGTTGCCT (site ACGGTTGCTAG) | 2.22
GACGTGTCTTGGGTTCTAACCTGTTGCCG (site GGCGTGTCTCC) | 0.0409
ACGGGTACTTGGGTTCTAACCTGTTGCCA (site AAGGGTTCTTG) | 0.355
GAGTCTTCTTGGGTTCTAACCTGTTGCTA (site GAGTCTTCTTA) | 0.0462
CTATTGTCTTGGGTTCTAACCTGTTGCGG (site CTATTGTCTAC) | 0.714
AAATCTGCTTGGGTTCTAACCTGTTGCCT (site GGTGGGACTGT) | 0.229
ATGCAATCTTGGGTTCTAACCTGTTGCCT (site ATGCAAGCTAG) | 0.236
CGGATCGCTTGGGTTCTAACCTGTTGCCT (site CGGATCGCTAG) | 1.76
CTAAGGGCTTGGGTTCTAACCTGTTGCCA (site CTAAGCGCTTG) | 0.0306
CCGGATGCTTGGGTTCTAACCTGTTGCCT (site CCGAATGCTAG) | 0.272
AAGTATCCTTGGGTTCTAACCTGTTGCGG (site AAGTATCCTCC) | 2.02
AGTGAGCCTTGGGTTCTAACCTGTTGCCT (site AGTGAGCCTAG) | 1.26
CCTCAGGCTTGGGTTCTAACCTGTTGCCG (site CCTCAGGCTAG) | 0.0315

Sequence | recombinant barcode read abundance (log10)
TGTTAGCCTTGGGTTCTAACCTGTTGCCA (site TGTTAGCCTTG) | 0.0869
CGCTCGACTTGGGTTCTAACCTGTTGCCT (site CGCTGGACTAG) | 0.188
TCGAGAGCTTGGGTTCTAACCTGTTGCCG (site TCGAGAGCTCG) | 0.441
GCACATACTTGGGTTCTAACCTGTTGCCT (site GCACATTCTAG) | 0
TCTGATTCTTGGGTTCTAACCTGTTGCCG (site TCTGATTCTCG) | 0.197
GTAAGTACTTGGGTTCTAACCTGTTGCTT (site GTAAGCACTAA) | 0.233
CGTGCAGCTTGGGTTCTAACCTGTTGCCT (site CGCGCAGCTAG) | 0.137
GATAGTCCTTGGGTTCTAACCTGTTGCCT (site GATAGTCCTAG) | 0.322
GGGGAATCTTGGGTTCTAACCTGTTGCAT (site GGGGAATCTAT) | 1.96
CTATGACCTTGGGTTCTAACCTGTTGCTG (site TCGGAGTCTGC) | 0.0682
ATTGGTTCTTGGGTTCTAACCTGTTGCCT (site ATTGGATCTAG) | 0.114
CCTCAGGCTTGGGTTCTAACCTGTTGCCG (site CCTCAGGCTTG) | 0.125
AGCCTGGCTTGGGTTCTAACCTGTTGCCT (site AGCCTGCCTAG) | 0.235
TCCCATACTTGGGTTCTAACCTGTTGCGA (site CTTGGGTCTAT) | 0.0603
ATGCTATCTTGGGTTCTAACCTGTTGCAG (site CACGGTCCTTG) | 0.276
AGAAGTCCTTGGGTTCTAACCTGTTGCTG (site AGAAGTCCTCA) | 1.11
TTCACACCTTGGGTTCTAACCTGTTGCCT (site TTCACACCTAG) | 0.385
GAGCTACCTTGGGTTCTAACCTGTTGCCG (site GAGCTACCTTG) | 0.214
ACCAGTACTTGGGTTCTAACCTGTTGCCT (site ACCGGTACTAG) | 0.0115
ACCGATTCTTGGGTTCTAACCTGTTGCAT (site GCCGATTCTAG) | 0.331
TGGTATCCTTGGGTTCTAACCTGTTGCCT (site TGGTATACTAG) | 0.15
TGTCGGACTTGGGTTCTAACCTGTTGCAC (site TGTCGGACTGT) | 0.38

Sequence | recombinant barcode read abundance (log10)
TACGTGGCTTGGGTTCTAACCTGTTGCCT (site TACGTGGCTAG) | 0.825
GACAAACCTTGGGTTCTAACCTGTTGCGG (site GACAAACCTCC) | 1.64
CTAATAGCTTGGGTTCTAACCTGTTGCTA (site CTAATAGCTTA) | 0.162
TCCCGTACTTGGGTTCTAACCTGTTGCAT (site TCCCGTACTAT) | 0.43
CTCGGGCCTTGGGTTCTAACCTGTTGCCT (site GTCGGGCCTAG) | 0.0296
GAAACAGCTTGGGTTCTAACCTGTTGCCT (site GACACAGCTAG) | 0.0141
CCTCACTCTTGGGTTCTAACCTGTTGCTT (site CCTCACTCTAA) | 1.2
GGTGGGTCTTGGGTTCTAACCTGTTGCTT (site GGTGGGTCTAT) | 1.69
CGTCAACCTTGGGTTCTAACCTGTTGCCT (site CGTCAACCTAG) | 0.0446
TAGCATACTTGGGTTCTAACCTGTTGCCC (site TAGCATACTAG) | 0.329
GTGAGGTCTTGGGTTCTAACCTGTTGCAT (site GTGAGGTCTAA) | 0.46
GATTATACTTGGGTTCTAACCTGTTGCTT (site GATTATACTAA) | 0.0285
GACCCACCTTGGGTTCTAACCTGTTGCCT (site CACCCACCTAG) | 0.814
CTTGGTTCTTGGGTTCTAACCTGTTGCCT (site CTTGGGTCTAG) | 0.108
TTAACTACTTGGGTTCTAACCTGTTGCTC (site TTAACTACTTA) | 0
ATGTCCTCTTGGGTTCTAACCTGTTGCCT (site ATGACCTCTAG) | 0.145
CAATCTGCTTGGGTTCTAACCTGTTGCCT (site CATTCTGCTAG) | 0.0288
CATCCGGCTTGGGTTCTAACCTGTTGCCT (site CATCCGACTAG) | 0.317
CTCTCGACTTGGGTTCTAACCTGTTGCCA (site CTCTCGACTTG) | 0.328
AACTTATCTTGGGTTCTAACCTGTTGCCT (site AACTCATCTAG) | 0.0843
AGCGCTTCTTGGGTTCTAACCTGTTGCCT (site ATCGCTTCTAG) | 0.0212
ATTTGACCTTGGGTTCTAACCTGTTGCCG (site ACTTGACCTCT) | 0.205

Sequence | recombinant barcode read abundance (log10)
GTACTACCTTGGGTTCTAACCTGTTGCCG (site ACGGAGACTAT) | 0.198
TAAAGTACTTGGGTTCTAACCTGTTGCTT (site TAAGGTACTAA) | 0.017
ACTGATGCTTGGGTTCTAACCTGTTGCCT (site ACTGATTCTAG) | 0.0409
TTAAGTCCTTGGGTTCTAACCTGTTGCCT (site TTAAGTCCTAG) | 0.448
TTATGAGCTTGGGTTCTAACCTGTTGCCG (site TTATGAGCTCG) | 1.2
ATGCTGTCTTGGGTTCTAACCTGTTGCTA (site GACTACCCTAG) | 0.273
CCGGTAACTTGGGTTCTAACCTGTTGCCT (site CCTGTAGCTAG) | 0.142
TATGCGCCTTGGGTTCTAACCTGTTGCCT (site TATGCGCCTAG) | 0.327
GAAGTCTCTTGGGTTCTAACCTGTTGCCT (site GAAGTCTCTAG) | 2.59
GCGTTTGCTTGGGTTCTAACCTGTTGCCT (site GAGTTTGCTAG) | 0.106
AGTAACCCTTGGGTTCTAACCTGTTGCCT (site ATTAACCCTAG) | 0.137
TAGCTGTCTTGGGTTCTAACCTGTTGCGT (site TAGCTGTCTAC) | 2.29
ATCCCACCTTGGGTTCTAACCTGTTGCGG (site ATCCCACCTCC) | 1.89
GCCATCACTTGGGTTCTAACCTGTTGCCT (site GCCATAACTAG) | 0.00743
TTCCGCTCTTGGGTTCTAACCTGTTGCCT (site ATCCGCTCTAG) | 0.112
CGACCCTCTTGGGTTCTAACCTGTTGCCT (site TGACCCTCTAG) | 0.381
GAGCTACCTTGGGTTCTAACCTGTTGCCG (site GAGCTACCTAG) | 0.837
GTGTGTCCTTGGGTTCTAACCTGTTGCCT (site GTGTGTGCTAG) | 0.155
AGGGACTCTTGGGTTCTAACCTGTTGCCG (site AGGGACTCTCG) | 1.71
GATGGTCCTTGGGTTCTAACCTGTTGCGG (site GACGGTCCTCC) | 0.306
